Values of other authors as cited in patent publication US20220347313A1, “Combination Anti-CD30 ADC, Anti-PD-1 and Chemotherapeutic for Treatment of Hematopoietic Cancers” (SEAGEN, INC., priority 2019, published 2022).

Tested on: CD28, ICOS, CTLA-4 and BTLA

nivolumab
binding specificity for PD-1 versus related CD28 family members: binds specifically to PD-1 and not to related members of the CD28 family
